# Laboratory results as given in article PMC10657444, “Design and evaluation of tadpole-like conformational antimicrobial peptides” (Communications Biology, 2023).
# Several values for one entry are separate records, joined by “and”; a condition that tells them apart may be missing. Equal entries are not always repeated. Where two headings read alike, the source gives them in different places. Non-standard residues stand in square brackets, D forms with d. Residues, ends and D or L forms follow the SMILES beside them.
# Columns and labels:
# [1] = test system: E. coli ATCC 25922; type: cell-based, Escherichia coli
# Text: Bacteria were cultivated in Luria-Bertani (LB) broth.
# [2] = MTT cytotoxicity assay; type: cell-based, human; settings: human
# [3] = test system: HEK293T cells; test: MTT cytotoxicity assay; type: cell-based, human; settings: for percent cell viability: HEK293T
# [4] = test system: MRSA USA 300; type: cell-based, Staphylococcus aureus
# Experimental: (§1) The stability of peptides in different media was assessed using the MIC assay described above. Here, the stability of HT2 and RI-HT2 in serum, salt, and different pH were analyzed using methods previously described with some modifications. For serum stability, a solution of 10% or 20% fetal bovine serum (FBS) was made by diluting fetal bovine serum with phosphate buffer saline (PBS). HT2 and RI-HT2 were added for a final concentration of 160 µg/mL of peptide in the FBS solution, and incubation 2 h. Suspension containing no peptide was considered the negative control. The MIC of HT2 and RI-HT2 against MRSA USA 300 and K. pneumoniae ATCC 700603 were measured. For the acid stability assays, the peptides were incubated with different pH values of PBS (pH = 5.5 or 6.4) at 37 °C. These peptide mixtures were then serially diluted in a 96-well plate for the evaluation of antimicrobial activity against bacterial strains. Similarly, for salt stability, the peptides were assessed for their antimicrobial activity against MRSA USA 300 and K. pneumoniae ATCC 700603 in the presence of 150 mM NaCl.
# [5] = test system: K. pneumoniae ATCC 700603; type: cell-based, Klebsiella pneumoniae
# Experimental: as §1
# [6] = test system: K. pneumoniae ATCC 700603; test: Membrane permeability, SYTOX Green; type: cell-based, Klebsiella pneumoniae
# Experimental: Fluorescent probe SYTOX^TM Green (Invitrogen/ Life Technologies, S7020) was used to analyze the effect of HT2 and RI-HT2 on membrane permeability of MRSA USA 300 and K. pneumoniae ATCC 700603 as described elsewhere. SYTOX^TM Green is a DNA binding dye that is fluorescent when bound to nucleic acids and only enters cells with compromised plasma membranes. MRSA USA 300 and K. pneumoniae ATCC 700603 were cultured in LB broth to mid log phase at 37 °C and washed with PBS and resuspended (OD595 ≈ 0.1) in the same buffer. SYTOX^TM Green was added into the cell suspension with a final concentration of 5 μM and being kept in dark for 20 min. 98 µL pre-treated cell suspension was transferred into wells of 96-well glass black plates. Then, 2 µL of compound or DMSO were added to initiate the reaction. The final concentrations of HT2 and RI-HT2 were 1 ×, 2 ×, 4 × and 8 × MIC. Fluorescence strength was measured with excitation/emission wavelength of 485/528 nm every 5 min for 60 min.
# [7] = test system: MRSA USA 300; test: Transmission electron microscopy; type: cell-based, Staphylococcus aureus; settings: 2 × MIC, 60 min
# Experimental: The processing method of the samples for transmission electron microscopy (TEM) was the same as the treatment for SEM. The samples were then prefixed with 2.5% glutaraldehyde at 4°C overnight, post-fixed with osmium tetroxide for 70 min, and washed twice with PBS (pH 7.4). Subsequently, the samples were dehydrated for 10 min in a graded ethanol series (30, 50, 70, 90, and 100%) followed by 10 min in a mixture of absolute ethanol and acetone (1:1, v/v) and 10 min in absolute acetone. The specimens were transferred to a mixture of absolute acetone and epoxy resin (1:1, v/v) for 30 min and then to pure epoxy resin overnight at a constant temperature. Finally, the samples were sectioned using an ultramicrotome, stained with uranyl acetate and lead citrate, and then observed by TEM (Hitachi H-7650, Japan).
# [8] = HEK293T cells, OD450, cytotoxicity (Fig 2a), replicates
structure (smiles),measurement,setting,value
CC[C@@H](C)[C@@H](NC(=O)[C@@H](Cc1ccccc1)NC(=O)[C@@H](Cc1ccccc1)NC(=O)[C@@H](Cc1ccccc1)NC(=O)[C@H](N)Cc1ccccc1)C(=O)N[C@H](CCCNC(=N)N)C(=O)N[C@H](CCCNC(=N)N)C(=O)N[C@H](CC(C)C)C(=O)N[C@H](Cc1ccccc1)C(=O)N[C@H](CCCNC(=N)N)C(N)=O [RI-HT2] (H-[dF][dF][dF][dF][dI][dR][dR][dL][dF][dR]-NH2; N-terminus assumed),MIC Gram- E. coli ATCC 25922,[1],3.13 µM
same,IC50 at 72 h,[2],> 100 µM
same,"viability at 72 h, 6.25 µM","[2]; HEK293T cells, HEK293T, 6.25 µM, read-out: OD450, cytotoxicity (Fig 2a), replicates",90.2%
same,"viability at 72 h, 12.5 µM","[2]; HEK293T cells, HEK293T, 12.5 µM, read-out: OD450, cytotoxicity (Fig 2a), replicates",87.8%
same,"viability at 72 h, 0.39 µM",[2]; [8],102%
same,"viability at 72 h, 0.78 µM",[2]; [8],94.4%
same,"viability at 72 h, 1.57 µM",[2]; [8],92.8%
same,"viability at 72 h, 3.13 µM",[2]; [8],93%
same,"viability at 72 h, 25 µM",[2]; [8],84.2%
same,"viability at 72 h, 50 µM",[2]; [8],77.8%
same,"viability at 72 h, 100 µM",[2]; [8],75.8%
same,toxicity / cytotoxicity against HEK293T cells (in words),[3],did not present
same,percent cell viability,[3]; 6.25 µM,88.3759
same,percent cell viability,[3]; 12.5 µM,86.6385 and 87.1349
same,MIC against MRSA USA 300,[4]; USA 300,3.13 µM
same,MIC against MRSA USA 300,"[4]; USA 300, pH 5.5",3.13 µM
same,MIC against MRSA USA 300,"[4]; USA 300, pH 6.4",3.13 µM
same,MIC against K. pneumoniae ATCC 700603,[5]; 150 mM NaCl,12.5 µM
same,MIC against K. pneumoniae ATCC 700603,[5]; ATCC 700603,>100 µM
same,MIC against K. pneumoniae ATCC 700603,[5]; Normal medium,6.25 µM
same,MIC against K. pneumoniae ATCC 700603,[5]; pH 5.5,12.5 µM
same,MIC against K. pneumoniae ATCC 700603,[5]; pH 6.4,12.5 µM
same,Fluorescence intensity,"[6]; 2 × MIC, time 0 min",1284 and 1283 and 1287
same,Fluorescence intensity,"[6]; 2 × MIC, time 5 min",3609 and 3355 and 3304
same,Fluorescence intensity,"[6]; 2 × MIC, time 10 min",8683 and 7973 and 7881
same,Fluorescence intensity,"[6]; 2 × MIC, time 15 min",14691 and 13649 and 13959
same,Fluorescence intensity,"[6]; 2 × MIC, time 20 min",20043 and 18959 and 19659
same,Fluorescence intensity,"[6]; 2 × MIC, time 25 min",24616 and 23653 and 24172
same,Fluorescence intensity,"[6]; 2 × MIC, time 30 min",28652 and 27362 and 28393
same,Fluorescence intensity,"[6]; 2 × MIC, time 35 min",31775 and 30780 and 31899
same,Fluorescence intensity,"[6]; 4 × MIC, time 0 min",1309 and 1246 and 1149
same,Fluorescence intensity,"[6]; 4 × MIC, time 5 min",36231 and 38899 and 38058
same,Fluorescence intensity,"[6]; 4 × MIC, time 10 min",55462 and 53189 and 56098
same,Fluorescence intensity,"[6]; 4 × MIC, time 15 min",60865 and 61985 and 61514
same,Fluorescence intensity,"[6]; 4 × MIC, time 20 min",61161 and 60954 and 60896
same,Fluorescence intensity,"[6]; 4 × MIC, time 25 min",61613 and 62061 and 61850
same,Fluorescence intensity,"[6]; 4 × MIC, time 30 min",62160 and 62706 and 62610
same,Fluorescence intensity,"[6]; 4 × MIC, time 35 min",62714 and 61385 and 61471
same,Fluorescence intensity,"[6]; 8 × MIC, time 0 min",1294 and 1162 and 1248
same,Fluorescence intensity,"[6]; 8 × MIC, time 5 min",46731 and 44912 and 46760
same,Fluorescence intensity,"[6]; 8 × MIC, time 10 min",54425 and 53299 and 56314
same,Fluorescence intensity,"[6]; 8 × MIC, time 15 min",62319 and 60472 and 61594
same,Fluorescence intensity,"[6]; 8 × MIC, time 20 min",64747 and 64976 and 65277
same,Fluorescence intensity,"[6]; 8 × MIC, time 25 min",65628 and 65784 and 65550
same,Fluorescence intensity,"[6]; 8 × MIC, time 30 min",65623 and 66146 and 65510
same,Fluorescence intensity,"[6]; 8 × MIC, time 35 min",66248 and 66493 and 66011
same,Fluorescence intensity,"[6]; 8 × MIC, time 40 min",66880
same,Fluorescence intensity,"[6]; MIC, time 0 min",1004 and 1023 and 1031
same,Fluorescence intensity,"[6]; MIC, time 5 min",2234 and 2276 and 2181
same,Fluorescence intensity,"[6]; MIC, time 10 min",3718 and 3745 and 3579
same,Fluorescence intensity,"[6]; MIC, time 15 min",5602 and 5647 and 5393
same,Fluorescence intensity,"[6]; MIC, time 20 min",7978 and 7923 and 7560
same,Fluorescence intensity,"[6]; MIC, time 25 min",10663 and 10527 and 10076
same,Fluorescence intensity,"[6]; MIC, time 30 min",13390 and 13373 and 12886
same,Fluorescence intensity,"[6]; MIC, time 35 min",16041 and 16009 and 15623
same,Fluorescence intensity,"[6]; MIC, time 40 min",18514 and 18484 and 18179
same,time to highest SYTOX Green fluorescence intensity,[6]; dose-dependent,≤ 40 min
same,membrane and intracellular structure by TEM (in words),[7],cytoplasmic membranes became blurred and separated
